The values that follow come from patent US12251383B2, “Methods and compositions for KRAS inhibitors” (The Board of Regents of the University of Texas System, priority 2019, dated 2025).

Series [1] can be described thus: Solubility in DMSO and common solvents. It is filed as physicochemical. Particulars: DMSO.
Another series has as its system lung cancer cells. Description: Cell proliferation (CyQuant), lung cancer cells overall. It is filed as cell-based. An excerpt:
(FIG. 5A) Chemical structure of compounds 12, an analogue of 11 lacking the terminal methyl alcohol functional group. (FIG. 5B) Predicted binding pose of compound 12. (FIG. 5C) p-ERK and p-cRaf levels in BHK cells expressing KRAS^G12D treated with indicated concentrations of compound 12 or vehicle. (FIG. 5D) Proliferation profile of lung cancer cells upon treatment with increasing concentration of compound 12, monitored by a CyQuant assay. Data are averages over three independent experiments and error bars represent standard error. (FIG. 5E) GFP fluorescence lifetime from FLIM-FRET using cells expressing GFP-KRAS^G12D alone or together with RFP-cRaf, with or without treatment with 2 μM compound 12.
Cell proliferation. Potential effect of the ligands on cancer cell proliferation was tested in three lung cancer cells: SKLU-1, H1975 and H522. Cells were plated at ˜1,000 cell per well in a 96-well plate and maintained in full serum media with or without compound at 37° C. for 72 h changing the media with the compound every 24 h. Media with compound was prepared by serial dilution at concentrations indicated. Then cells were washed with PBS and frozen at −80° C. for a minimum of 24 h. Plates were thawed and CyQuant™ dye (in lysis buffer provided in the CyQuant™ cell proliferation assay kit, Invitrogen™) was added, and after a five-minute incubation, fluorescence (excitation: 480 nm emission: 520 nm) was measured with a Tecan Infinite M200 plate reader.

The subject of the next series is KRAS^G12D. Put plainly: Cell signaling (Western) in BHK cells expressing KRAS G12D. It counts as cell-based, hamster. Particulars: BHK KRAS^G12D. On the procedure:
(§1) Cell signaling. The inhibitory potential of compounds was tested in monoclonal Baby Hamster Kidney (BHK) cell lines stably expressing monomeric green fluorescence protein (mGFP)-tagged KRAS^G12D, K-Ras^G12V and HRAS^G12V. Cells were cultured in Dulbecco's Modified Eagle Medium (DMEM, Hyclone) supplemented with 10% v/v bovine calf serum and incubated with compound or vehicle (DMSO) for 3 h without serum. Cells were then harvested in lysis buffer (50 mM Tris (pH 7.5), 75 mM NaCl, 25 mM NaF, 5 mM MgCl2, 5 mM EGTA, 1 mM dithiothreitol, 100 μM NaVO4, 1% Nonidet P40 plus protease inhibitors) and subjected to Western analysis controlling protein loading by BCA (bicinchoninic acid) assay. Lysates were resolved with Bio-Rad polyacrylamide TGX 10% gel, transferred to polyvinylidene fluoride (PVDF) membrane and immunoblotted using pan-AKT (2920S), GFP (2956S), pAKT^S473 (4060L), p-cRaf^S338 (9427S), p-ERK^T202/Y204 (4370L), ERK1/2 (4695S) or β-actin antibodies (Cell Signaling Technology). IC50 values were calculated with Prism 4-parameter fit.
Cell signaling assays identify compound 11 as a promising initial hit Western analysis was used to quickly assess the potential impact of the predicted hits on MAPK signaling, a major pathway mediated by KRAS. Specifically, ERK1/2 phosphorylation levels (p-ERK) were monitored in BHK cells stably expressing KRAS^G12D treated with vehicle (DMSO), the MEK inhibitor […] (U) or compound at four different concentrations (1-100 μM). […] Compounds 9 and 11 (structures for compounds 1-11 are provided in Appendix I, attached hereto), on the other hand, decreased p-ERK levels at concentrations ≥50 μM and ≥5 μM, respectively. To verify the latter observation, the experiments were repeated in an expanded concentration range starting from 0.1 μM. […] However, compound 9 (see Appendix I, attached hereto) increased p-ERK levels at 25 and 38 μM in contrast to the decrease observed at higher concentrations (FIG. S1B; see Appendix I, attached hereto).

In series [2] the target is T1, KRAS^G12D-cRaf interaction (Homo sapiens, UniProt P01116, G12D).
T1 construct: expressed in transfected cells; host or cells: BHK (baby hamster kidney) cells, transient expression
Put plainly: FLIM-FRET of GFP-KRAS G12D and RFP-cRaf in BHK cells. It is filed as cell-based, hamster. Particulars: 2 μM. An excerpt:
[formula] where P1 is polarization of free KRAS, P2 is polarization of Raf-bound KRAS, c is the total concentration of KRAS, and x the total concentration of Raf^RBD. (FIG. 2B) Amount of GFP-KRAS^G12D pulled down by GST-Raf^RBD after treatment of cell lysates with compound at the concentrations indicated (representative Westerns are shown at the top). The RBD sequence length was 1-149 and 51-131 in the fluorescence polarization and pull-down assays, respectively. (FIG. 2C) GFP fluorescence lifetime from FLIM-FRET using cells expressing GFP-KRAS^G12D alone or with RFP-Raf, with or without treatment by 1 μM compound 11. Data are shown as mean±S.E; significance estimated by one-way analysis of variance.
Fluorescence lifetime imaging (FLIM)-fluorescence resonance energy transfer (FRET). FLIM-FRET experiments were carried out using a lifetime fluorescence imaging attachment (Lambert Instruments, The Netherlands) on an inverted microscope (43). BHK cells transiently expressing mGFP-tagged KRAS^G12D (donor), alone or with mRFP-tagged cRaf^WT (acceptor) (using 1:5 ratio), were prepared as indicated in each experiment. The samples were excited using a sinusoidally modulated 3 W 470 nm light-emitting diode at 40 MHz under epi-illumination. Fluorescein was used as a lifetime reference standard. […] The phase and modulation were determined from 12 phase settings using the manufacturer's software. […]

The test system of the next series is HRAS^G12V. Description: Cell signaling (Western) in BHK cells expressing HRAS G12V. It counts as cell-based, hamster. Particulars: 10 μM. The protocol: as §1

The structures appear in SMILES notation. “Also recorded” adds a separate entry of the source.

As to `Cc1nn2c(N3CCN(C)CC3)cc(-c3ccccc3)nc2c1-c1ccccc1` [Compound 12], the solubility result in series [1] is “less soluble; also recorded: solubility issues”. Also, in the series on lung cancer cells, the “inhibition of cell proliferation relative to compound 11” value is “somewhat less effective”; the “selectivity between KRAS mutant and KRAS^WT lung cancer cells” value is reported as “better selectively profile”. Also, in the series with KRAS^G12D, the “concentration at which p-ERK levels are decreased” value came to 2 µM and the “effect on p-cRaf levels” value was “no effect”. Moreover, in series [2], the “KRAS-Raf interaction (FLIM-FRET)” value is recorded as “does not affect”.

`N#CC(=C(/N)Sc1ccccc1N)/C(C#N)=C(\N)Sc1ccccc1N` [Compound U0126, reference compound]: in the series with HRAS^G12V, the “effect on MAPK signaling” value is recorded as “almost completely abolished”.
